In patent US11724980B2, “Quinones having high capacity retention for use as electrolytes in aqueous redox flow batteries” (President and Fellows of Harvard College, priority 2018, dated 2023):
Values after ≈ are worked out from the molar mass of the structure shown. Like-named read-outs stand apart in the source and are kept apart here.

Key:
[1] = Unbalanced compositionally-symmetric cell cycling; conditions: for temporal fade rate: 0.10 M, pH 12 (0.01 M KOH)
Description: As a direct probe of the effect of O-alkylation of anthraquinone on its chemical stability, 2,6-DBEAQ was cycled potentiostatically in a volumetrically unbalanced compositionally-symmetric cell configuration.
Potentiostatic symmetric cell cycling was performed according to a reported procedure^8 in order to assess the temporal chemical stability of DBEAQ, independent of any variations in apparent capacity as a result of changes to membrane resistance, and in a configuration where there is negligible water or reactant crossover due to the same DBEAQ concentration being used in both electrolytes. […] 5 mL of the resulting electrolyte was used as the capacity-limiting side of a volumetrically unbalanced compositionally-symmetric cell, while the remaining 10 mL was used as the non-capacity-limiting side, i.e., with twice the nominal capacity of the capacity-limiting side. […].
The cycling stability of the DPPEAQ electrolyte was also studied by a previously published symmetric cell method.^24 Although the oxidized form of DPPEAQ is readily soluble at pH 9, proton-coupled electron transfer raises the pH of the electrolyte when it is reduced. Such pH fluctuations can produce misleading results in symmetric cell testing unless the starting pH is above the cutoff point for proton-coupled electron transfer.

physchem [2] = format: physicochemical; conditions: for solubility: thermodynamic from solid
Description: Solubility limits of all DBEAQ isomers were measured in their oxidized forms by adding the potassium salt of DBEAQ (prepared by reacting DBEAQ with potassium hydroxide in water) until no further solid could be dissolved. After filtering the mixture through a PTFE 0.45 μm syringe filter, a saturated solution of DBEAQ in KOH was obtained. The saturated solution was then diluted by a known amount, and the concentration was evaluated by UV-Vis (Ocean Optics Flame-S Spectrometer Assembly) at 280 and 364 nm. […]
The solubility limit of DPPEAQ was measured in the oxidized form by adding the potassium salt of DPPEAQ (prepared by reacting DPPEAQ with potassium hydroxide in water) until no further solid could be dissolved. The mixture was adjusted to pH 9. After filtering the mixture through a PTFE 0.45 μm syringe filter, a saturated solution of DPPEAQ at pH 9 was obtained. The saturated solution was then diluted by a known amount while maintaining a pH of 9, and the concentration was evaluated by UV-Vis (Agilent Cary 60 spectrophotometer). The concentration was calculated according to a pre-calibrated absorbance-concentration curve of known concentrations of DPPEAQ at pH 9.

[3] = previous study (ref 3/17); cited from earlier work
[4] = cited from earlier work
[5] = CV simulation as two one-electron reductions; format: physicochemical; conditions: same AQ:AQ2− ratio, from E1-E2 separations
Description: FIG. 6. Capacitance-corrected CV of 5 mM 2,6-DBEAQ in 1 M KOH (solid grey line). The dashed red line represents the simulated total current arising from two successive one-electron reductions with reduction potentials of −0.517 and −0.511 V vs. SHE, according to the procedure outlined in a previous publication.^1 Each simulated reduction has a rate constant ko=7×10^−3 cm/s and α=0.5.
A first CV experiment was performed in which 2,6-DBEAQ was dissolved in pH 14 KOH solution at a concentration of 5 mM. CV measurements were plotted in FIG. 5A and include results for the isomers of 2,6-DBEAQ.
Following our previous study on 2,6-DHAQ^17 and literature reports^1,18 on quinone electrochemistry in the absence of proton donors, we simulated the CV of 2,6-DBEAQ as representing two reversible electron transfer steps at two different potentials E1 and E2. The separation between simulated redox potentials for the first (E1) and second (E2) electron reductions for 2,6-DBEAQ is considerably narrower than the corresponding peak separation for 2,6-DHAQ^17 (6 mV vs. 60 mV).
The pH dependence of the proton-coupled electron transfer (POET) redox reaction for a generalized anthraquinone (AQ) is often visualized by the nine-membered square scheme (FIG. 7). The horizontal direction indicates electron transfer (ET), and the vertical direction indicates proton transfer (PT or protonation). Under strongly alkaline conditions, where the pH is higher than the second pKa (pKa2) of the reduced AQ (AQ^2−), no protonation of the semiquinone anion will take place, and reduction proceeds via two ET steps, from AQ to a semiquinone (AQ-^●) at E1, and from AQ-^● to AQ^2− at E2 which is typically <E1. Depending on the value of E1-E2, the mechanism of AQ reduction in alkaline conditions can either be a concerted one-step, two-electron process or two single-electron processes. […]

[6] = pH 14 KOH, literature (ref 3); cited from earlier work
[7] = cited from earlier work; remark: listed apart in the source
[8] = Rotating disk electrode study with Levich analysis; format: physicochemical; conditions: 5 mM in 1 M KOH, Levich plot
Description: Glassy carbon was used as the working electrode for all three-electrode CV tests. RDE experiments were conducted using a Pine Instruments Modulated Speed Rotator AFMSRCE equipped with a 5 mm diameter glassy carbon working electrode, a Ag/AgCl reference electrode (BASi, pre-soaked in 3 M NaCl solution), and a graphite counter electrode. The electrode was rotated at a specific speed while the voltage was linearly swept from −0.4 to −0.11 V vs. Ag/AgCl (FIG. 4A). […]. RDE experiments were conducted using a Pine Instruments Modulated Speed Rotator AFMSRCE equipped with a 5 mm diameter glassy carbon working electrode, a Ag/AgCl reference electrode (BASi, pre-soaked in a 3 M KCl solution), and a graphite counter electrode. […]

[9] = Cyclic voltammetry on glassy carbon electrode; format: physicochemical
Description: Glassy carbon was used as the working electrode for all three-electrode CV tests. RDE experiments were conducted using a Pine Instruments Modulated Speed Rotator AFMSRCE equipped with a 5 mm diameter glassy carbon working electrode, a Ag/AgCl reference electrode (BASi, pre-soaked in 3 M NaCl solution), and a graphite counter electrode. The electrode was rotated at a specific speed while the voltage was linearly swept from −0.4 to −0.11 V vs. Ag/AgCl (FIG. 4A). […].
A second CV experiment was performed in which 2,6-DBEAQ was dissolved in pH 14 KOH solution at a concentration of 2 mM. CV measurements were plotted in FIG. 4C. The standard equilibrium potential was determined to be −0.49 V vs. SHE. The separation between the peaks in the CV curves was 42 mV, indicating fairly rapid and reversible electrochemical reactions at the surface of the electrodes.

physchem [10] = format: physicochemical; conditions: 0.1 M
Description: FIGS. 24A-24D. Comparison of the stability of DPPEAQ with respect to alkyl chain cleavage to that of 2,6-DBEAQ at pH 14. ^1H NMR spectra (500 MHz, 10 mM NaCH3SO3 internal standard, δ 2.6 ppm) of (A) DPPEAQ at pH 14; (B) DPPEAQ at pH 14, treated for 5.5 days at 95° C. and 0.1 M concentration; (C) 2,6-DBEAQ at pH 14; (D) 2,6-DBEAQ at pH 14, treated for 5.5 days at 95° C. and 0.1 M concentration. […] The relative integrals and splitting of the peaks in the spectra of DPPEAQ after treatment are consistent with the products of (3-hydroxypropyl)phosphonate cleavage. Samples of DPPEAQ at 0.1 M concentration and pH 14 in both the oxidized and reduced form were stored in FEP bottles and heated in an oven at 65° C. for 2 weeks. The extent of decomposition was determined by ^1H NMR, with peak integrals measured relative to an internal standard of NaCH3SO3 prepared at 10 mM concentration in D2O.
By performing elevated temperature chemical stability studies, we have identified that the cleavage of γ-hydroxybutyrate is involved in the decomposition of the oxidized form of 2,6-DBEAQ (FIGS. 10A-10C and FIGS. 11A-11D), and we have characterized the time course of γ-hydroxybutyrate cleavage at pH 12 and pH 14 and at 0.1 M and 0.5 M concentration (FIG. 12 and FIGS. 13A-13C). […]; these observations are consistent with long redox flow battery lifetime at typical operating cell conditions.
We designed an analogue of 2,6-DBEAQ but with phosphonate-terminated functional groups, DPPEAQ, appearing to deliver both of these desired outcomes.
The differing relative stabilities of DPPEAQ and 2,6-DBEAQ at pH 12 (at 95° C. and 0.1 M concentration), in contrast to the similar extent of their observed decomposition at pH 14, may be due to a competition between multiple decomposition mechanisms that vary in a pH-dependent manner. The concentration of hydroxide ions at pH 14 is tenfold higher than the concentration of either molecule at 0.1 M, as opposed to tenfold lower at pH 12. In particular, we propose a hydroxide-mediated nucleophilic substitution reaction (SNAr or SN2) that dominates the decomposition of both molecules at pH 14. However, at a lower pH of 12, an intramolecular reaction with carboxylate acting as the nucleophile dominates in the decomposition of 2,6-DBEAQ, while no analogous intramolecular reaction of DPPEAQ at pH 12 can take place due to much weaker nucleophilicity of bulked phosphonate compared with carboxylate. The difference in the dominant mechanisms of 2,6-DBEAQ decomposition at pH 12 and 14 that we are proposing is also consistent with the observation that the initial rate of degradation is not 100-fold slower at pH 12 relative to pH 14. […] In addition, the operability at lower pH serves to decrease the corrosion of battery systems and enable the use of less expensive materials.

Question: With O=C(O)CCCOc1ccc2c(c1OCCCC(=O)O)C(=O)c1ccccc1C2=O [1,2-DBEAQ] as the molecule, how does the temporal fade rate [1] read?
Answer: greater than 0.1 %/day

Question: What about the “Solubility (M) at pH 14 (pH 12)” value (physchem [2]) of the same molecule?
Answer: 0.9 M

Question: Which results are given for O=C(O)CCCOc1cccc2c1C(=O)c1c(OCCCC(=O)O)cccc1C2=O [1,8-DBEAQ]?
Answer: temporal fade rate [1]: > 10 %/day; Solubility (M) at pH 14 (pH 12) (physchem [2]): 0.75 M

Question: What does the source list for O=C1c2ccc(O)cc2C(=O)c2ccc(O)cc21 [2,6-DHAQ, 2,6-dihydroxyanthraquinone]?
Answer: E1-E2 separation [3]: 60 mV; capacity fade rate ([4]; reported (refs 21,22)): 5 %/day; Keq_comp for semiquinone formation, times higher than for 2,6-DBEAQ [5]: 2.83 times; room temperature solubility [6]: 0.6 M; temporal capacity fade rate ([1]; pH 14 (1 M KOH), 0.10 M (2,6-DBEAQ also 0.65 M)): 5 %/day; reduction potential ([7]; comparison value for 2,6-DHAQ): −680 mV vs. SHE; redox peak separation ([7]; literature (ref 3)): ~90 mV; solubility (physchem [2]; pH 12, aqueous buffer): 100 mM (≈ 24 mg/mL); solubility (physchem [2]; pH 14, aqueous buffer): 60 mM (≈ 14.4 mg/mL)

Question: Which temporal fade rate ([4]; lowest previously reported quinone-based electrolyte (refs 10,11)) does the source give for O=C1c2ccc(S(=O)(=O)O)cc2C(=O)c2ccc(S(=O)(=O)O)cc21 [AQDS, 9,10-anthraquinone-2,6-disulfonate] here?
Answer: 0.1-0.2 %/day

Question: Which capacity fade ([1]; 0.1 M, pH 13, cycled 6 days) does the source give for O=C1c2ccc(OCCCP(=O)(O)O)cc2C(=O)c2ccc(OCCCP(=O)(O)O)cc21 [DPPEAQ, (((9,10-dioxo-9,10-dihydroanthracene-2,6-diyl)bis(oxy))bis(propane-3,1-diyl))bis(phosphonic acid)] here?
Answer: 0.02 %/day

Question: And the “diffusion coefficient for the oxidized form” value [8]?
Answer: 1.37×10^−6 cm^2/s

Question: And the “pH above which the potential is pH-independent” value ([9]; Pourbaix diagram)?
Answer: ~12.4

Question: And the “redox potential (E1/2)” value ([9]; buffered pH 9)?
Answer: −0.39 V vs. SHE

Question: And the “redox potential (E1/2)” value ([9]; buffered pH 12)?
Answer: −0.47 V vs. SHE

Question: And the Pourbaix diagram slope ([9]; fit to data below pH 12)?
Answer: −30 mV/pH

Question: What about the “redox potential (E1/2)” value ([9]; pH 9 unbuffered aqueous solution) of the same molecule?
Answer: −0.47 V vs. SHE

Question: What about the “redox potential (E1/2)” value ([9]; pH 12 unbuffered aqueous solution) of the same molecule?
Answer: −0.49 V vs. SHE

Question: What about the decomposition (physchem [10]; pH 9, 6 days at 95° C.) of the same molecule?
Answer: no significant decomposition

Question: What about the decomposition (physchem [10]; pH 12, 6 days at 95° C.) of the same molecule?
Answer: no significant decomposition

Question: And the decomposition (physchem [10]; pH 14, 5.5 days at 95° C.)?
Answer: 45%

Question: And the “chemical stability of the reduced form” value (physchem [10]; pH 14, 12 days at 65° C.)?
Answer: robust chemical stability

Question: What about the solubility (physchem [2]; pH 9, aqueous buffer, pH 9, read-out: solubility of the oxidized form) of the same molecule?
Answer: 750 mM (≈ 363 mg/mL)
